Laboratory results: publication PMC9790248, “Effects of CYP3A Inhibition, CYP3A Induction, and Gastric Acid Reduction on the Pharmacokinetics of Ripretinib, a Switch Control KIT Tyrosine Kinase Inhibitor” (Clinical Pharmacology in Drug Development, 2022)
Read-outs that look alike come from different tables or passages of the source.

Experiment: Pantoprazole (proton pump inhibitor) DDI study, plasma pharmacokinetics
Format: in vivo, human
Settings: for AUC(0-t) / AUC(0-inf) / Cmax / half-life / Tmax: both sexes, human, plasma; for AUC(0-t) / AUC(0-inf) / Cmax / half-life: po; for AUC(0-t) / AUC(0-inf) / Cmax / half-life / Tmax / CL/F, arithmetic mean (SD) / CL/F, geometric mean (CV%): fasting; for Tmax: read-out: tmax, median (min, max); for Time postdose that mean plasma concentration remained above the LLOQ: LLOQ 2.00 ng/mL
Procedure: All studies were phase 1, fixed‐sequence, open‐label studies in healthy volunteers. One study consisted of two separate cohorts examining DDIs between ripretinib and itraconazole or pantoprazole, respectively; the rifampin study was conducted separately. Studies and cohorts were enrolled independently. Eligible participants were healthy male or female adults between 18 and 55 years of age with a body mass index (BMI) of ≥18.5 and ≤30 kg/m^2. Good health was confirmed by a physician and based on medical evaluation with no significant findings, including medical history, physical examination, laboratory tests, and 12‐lead electrocardiogram (ECG) at screening and day −1. Participants were required to abstain from alcohol, marijuana, grapefruit, Seville oranges, tangelo, star fruit, and grapefruit‐like products 14 days prior to and during the study. Participants with a positive breath test for Helicobacter pylori were excluded from the pantoprazole study.
Participants were confined to the study center on days 1 through 16. On day 1, participants received an oral dose of ripretinib 50 mg under fasting conditions (Figure 1C). On days 8 through 13, participants received pantoprazole 40 mg once daily. On day 14, participants received pantoprazole 40 mg once daily and ripretinib 50 mg simultaneously under fasting conditions.
Ripretinib and its active metabolite DP‐5439 plasma concentrations were measured using a validated high‐performance liquid chromatography (HPLC) with tandem mass spectrometry (LC‐MS/MS) assay with a lower limit of quantification (LLOQ) of 2.00 ng/mL for both analytes. In this method, the analytes (ripretinib and DP‐5439) and the internal standards (ISs; DCC‐2618‐d5 and DP‐5439‐d5) were released from human plasma samples by protein precipitation. The supernatants were chromatographed using reversed‐phase HPLC with a Betasil® C8 analytical column with deionized water (0.1% formic acid) and 40/60 acetonitrile/acetone (0.1% formic acid) as the mobile phase. Mass spectrometric detection was performed on a triple quadrupole tandem mass spectrometer API 5000 or API 5500 (Applied Biosystems/MDS Sciex, Toronto, Canada) equipped with a turbo ion spray source operated in the positive ionization mode. The source parameters were collision energy 40 eV, collision gas 6 psi, Nebulizer Gas 1, Turbo IonSpray Gas 2, and curtain gas 35 psi. Quantification was obtained by using multiple reaction monitoring mode of the transitions of mass to charge ratio [m/z] 510.3 →417 for DCC‐2618 (ripretinib), m/z 496.2 →403 for DP‐5439, m/z 515.3 →417 for DCC‐2618‐d5, and m/z 501.2 →403 for DP‐5439‐d5.
Plasma concentration–time data were analyzed using noncompartmental methods using Phoenix® WinNonlin® v7.0 (Certara USA Inc., Princeton, New Jersey). Derived PK parameters included area under the concentration–time curve from time 0 to time t (AUC0–t) and area under the concentration–time curve from 0 to infinity (AUC0–∞), maximum observed concentration (Cmax), time of maximum observed concentration (tmax), elimination half‐life (t1/2), apparent systemic clearance, and for DP‐5439, metabolite to parent ratio for AUC0–t, AUC0–∞, and Cmax.
The PK population included all participants who received ≥1 dose ripretinib and had ≥1 nonmissing PK concentration in plasma reported for ripretinib or DP‐5439. The PK evaluable set included all participants in the PK population who had ripretinib PK parameters on both ripretinib dosing days, bioanalytical results for ≥75% of planned analyses, no missed ripretinib doses and ≤2 missed perpetrator (itraconazole, pantoprazole, or rifampin) doses before the second dosing day of ripretinib, and no emesis within 8 hours of ripretinib administration. […]

[1] = ripretinib 50 mg single oral dose + pantoprazole 40 mg QD, healthy participants (N = 23)
[2] = ripretinib 50 mg single oral dose alone, healthy participants (pantoprazole study, N = 23)
[3] = ripretinib 50 mg with pantoprazole 40 mg QD relative to ripretinib alone
[4] = ripretinib 50 mg with pantoprazole 40 mg QD relative to ripretinib alone, listed as ripretinib

For CCn1c(=O)c(-c2cc(NC(=O)Nc3ccccc3)c(F)cc2Br)cc2cnc(NC)cc21 [Ripretinib], the AUC(0-t) (50 mg, ripretinib 50 mg single oral dose alone, healthy participants (pantoprazole study, N = 23), read-out: AUC0–t, arithmetic mean (SD)) was 3.87 µg·h/mL, the AUC(0-t) (50 mg, ripretinib 50 mg single oral dose alone, healthy participants (pantoprazole study, N = 23), read-out: AUC0–t, geometric mean (CV%)) was 3.61 µg·h/mL and the AUC(0-inf) (50 mg, ripretinib 50 mg single oral dose alone, healthy participants (pantoprazole study, N = 23), read-out: AUC0–∞, arithmetic mean (SD)) was 3.95 µg·h/mL. It also gave an AUC(0-inf) (50 mg, ripretinib 50 mg single oral dose alone, healthy participants (pantoprazole study, N = 23), read-out: AUC0–∞, geometric mean (CV%)) of 3.69 µg·h/mL, a Cmax (50 mg, ripretinib 50 mg single oral dose alone, healthy participants (pantoprazole study, N = 23), read-out: Cmax, arithmetic mean (SD)) of 0.301 µg/mL and a Cmax (50 mg, ripretinib 50 mg single oral dose alone, healthy participants (pantoprazole study, N = 23), read-out: Cmax, geometric mean (CV%)) of 0.289 µg/mL. For the same molecule, the half-life (50 mg, ripretinib 50 mg single oral dose alone, healthy participants (pantoprazole study, N = 23), read-out: t1/2, arithmetic mean (SD) (converted)) was 14 h, the half-life (50 mg, ripretinib 50 mg single oral dose alone, healthy participants (pantoprazole study, N = 23), read-out: t1/2, geometric mean (CV%) (converted)) was 13 h and the AUC(0-t) (ripretinib 50 mg single oral dose + pantoprazole 40 mg QD, healthy participants (N = 23), read-out: AUC0–t, arithmetic mean (SD)) was 4.22 µg·h/mL. The AUC(0-t) (ripretinib 50 mg single oral dose + pantoprazole 40 mg QD, healthy participants (N = 23), read-out: AUC0–t, geometric mean (CV%)) was 3.94 µg·h/mL, the AUC(0-inf) (ripretinib 50 mg single oral dose + pantoprazole 40 mg QD, healthy participants (N = 23), read-out: AUC0–∞, arithmetic mean (SD)) was 4.31 µg·h/mL and the AUC(0-inf) (ripretinib 50 mg single oral dose + pantoprazole 40 mg QD, healthy participants (N = 23), read-out: AUC0–∞, geometric mean (CV%)) was 4.03 µg·h/mL. For the same molecule, the Cmax (ripretinib 50 mg single oral dose + pantoprazole 40 mg QD, healthy participants (N = 23), read-out: Cmax, arithmetic mean (SD)) was 0.319 µg/mL, the Cmax (ripretinib 50 mg single oral dose + pantoprazole 40 mg QD, healthy participants (N = 23), read-out: Cmax, geometric mean (CV%)) was 0.298 µg/mL and the half-life (ripretinib 50 mg single oral dose + pantoprazole 40 mg QD, healthy participants (N = 23), read-out: t1/2, arithmetic mean (SD) (converted)) was 14 h. For the same molecule, the half-life (ripretinib 50 mg single oral dose + pantoprazole 40 mg QD, healthy participants (N = 23), read-out: t1/2, geometric mean (CV%) (converted)) was 14 h, the Tmax [1] was 4 h and the Tmax [2] was 4 h. The “Effect of pantoprazole on exposure / pharmacokinetics” value (ripretinib 50 mg + pantoprazole 40 mg QD) was “no effect”, the “Time postdose that mean plasma concentration remained above the LLOQ” value (ripretinib 50 mg alone (pantoprazole study)) was < 96 h and the “CL/F, arithmetic mean (SD)” value [1] was 13 (5) L/h. For the same molecule, the “CL/F, geometric mean (CV%)” value [1] was 12 (38) L/h, the “CL/F, arithmetic mean (SD)” value [2] was 14 (5) L/h and the “CL/F, geometric mean (CV%)” value [2] was 14 (38) L/h. The “Geometric LS mean ratio of AUC0–t” value [3] was 109%, the “Geometric LS mean ratio of AUC0–∞ (90% CI)” value [3] was 109 (98–122) % and the “Geometric LS mean ratio of Cmax (90% CI)” value [3] was 103 (91–117) %. For the same molecule, the “Geometric LS mean ratio of AUC0–∞ (90% CI)” value [4] was 109%, the “Geometric LS mean ratio of Cmax (90% CI)” value [4] was 103% and the “Time postdose that mean plasma concentration remained above the LLOQ” value (ripretinib 50 mg with pantoprazole) was < 96 h.
